# Test results: US5854279A, “Therapeutic agent for dermatosis” (Eisai Co., Ltd, priority 1996, dated 1998)
# Structures can show the parent of a compound that is named as a salt.
# Experiments:
# [1] = test system: TPA-induced earlobe edema; experiment: TPA-induced ear edema; type: in vivo, BALB/c mouse; conditions: for Right earlobe edema: TPA 2 μmol, average of seven cases ± SEM
# Procedure: The test was conducted according to the method by Carlson et al. (Agents and Actions, 1985, 17(2), p 197-204).
# (§1) That is, 2 mg of TPA (phorbol 12-myristate 13-acetate, manufactured by Sigma Chemical Co.) and 4 to 100 nmol of Compound (II) or 250 nmol of dexamethasone (manufactured by Sigma Chemical Co.) were dissolved in 20 ml of acetone. The mixture was applied to inner surface of the right earlobe of BALB/c mouse (male, age in week of 8), to induce inflammation. Four hours after TPA application, the mouse was killed by dislocation of cervical vertebrae and the thickness of each right and left earlobe was measured by using a Dial Thickness Gauge (manufactured by Peacock Co., G0.01 to 10 mm) and the difference in thickness between right and left earlobe was considered as edema.
# MPO (myeloperoxidase) = experiment: MPO activity in TPA-treated earlobe; type: in vivo, BALB/c mouse; conditions: for MPO Activity: TPA 2 μmol, average of seven cases ± SEM
# Procedure: as §1, with “The” for “That is, 2 mg of TPA (phorbol 12-myristate 13-acetate, manufactured by Sigma Chemical Co.) and 4 to 100 nmol of Compound (II) or 250 nmol of dexamethasone (manufactured by Sigma Chemical Co.) were dissolved in 20 ml of acetone. The”
# 2) Measurement of MPO Activity
# After measurement of edema, MPO (myeloperoxidase) activity of the excised right earlobe was measured by the following method. 1 ml of 0.5% HTAB (hexadecyl trimethylammonium bromide, manufactured by Sigma Chemical Co.)/50 mM potassium phosphate buffer, pH 6.0 was added to the excised right earlobe and homogenized. The supernatant obtained after centrifugation was used as an extract. Measurement of MPO activity in the extract was carried out according to a method using a 96-well plate. […] Absorbance at 450 nm was measured for 3 minutes at every 10 seconds. The slope of the straight line obtained for 1 minute after 10 seconds from the beginning of the reaction was calculated for every each sample. MPO activity when the slope is 1 is defined as 1 unit (U), and number of unit in the extract was obtained. Further, the amount of protein in the extract was quantified by BIO-RAD PROTEIN ASSAY (manufactured by Bio-Rad Laboratories), and expressed as MPO activity/mg protein.
# [2] = test system: epidermal ornithine decarboxylase (ODC); experiment: TPA-induced mouse epidermal ornithine decarboxylase (ODC) activity; type: in vivo, hairless mouse (SKH/hr-1); conditions: for Epidermal ODC Activity: TPA 17 nmol, average of five cases ± standard error
# Procedure: (2) Measurement of Mouse Epidermal Ornithine Decarboxylase (ODC) Activity
# 1) Induction of ODC Activity
# The experiment was carried out according to the method by O'Brien et al. (Cancer Research, 1975, 35(2), p 1662-1670).
# […] of acetone solution containing 17 nmol of TPA (phorbol 12-myristate 13-acetate, manufactured by Sigma) and 0.5 to 2 μmol of Compound (II) or 2-(2-acetyl-6-methoxy-3,9-dioxo-4,8-dioxa-2,10-diazaoctacosa-1-yl)-1-ethylpyridinium salt (customary name; CV-6209, manufactured by Wako Junyaku) was homogeneously applied on the skin of the back (about 8 cm^2) of the hairless mouse (strain: SKH/hr-1, female, age in week of 9). After 4.5 hours, mouse was killed by anesthetizing with ether, and skin tissue was excised. The skin tissue was treated at 55° C. for 30 seconds, then ice-cooled and the epidermis was peeled off. To this epidermis, 1 ml of 50 mM sodium phosphate buffer [pH 7.2, 0.4 mM pyridoxal 5-phosphate (manufactured by Sigma), 5 mM dithiothreitol (manufactured by Sigma)] were added, homogenized and then centrifuged at 4° C. and 30,000 g for 30 minutes to obtain a supernatant.
# 2) Measurement of ODC Activity
# ODC activity in the supernatant was measured by ^14 CO2 release from L-[1-^14 C]ornithine (manufactured by Sigma) as an index. A tube containing 50 μl of the above buffer comprising 1 mM L-ornithine and […] L-[1-^14 C]ornithine (manufactured by Amersham) as well as 100 μl of homogenate sample added thereto was rapidly placed into a vial, and sealed. This vial was incubated at 37° C. for one hour, to which was added 0.3 ml of 2M citric acid solution and further incubated for one hour. ^14 CO2 released during this period was trapped by using a filter containing 0.15 ml of NCS solubilizer set in the reaction vial. After removing out the tube, 15 ml of liquid scintillator (ACSII) was added and radioactivity in the vial was measured by using a liquid scintillation counter.
# Further, the concentration of protein in the homogenate sample was quantified by using the above BIO-RAD PROTEIN ASSAY, and the amount of the released ^14 CO2 /mg protein was calculated and used as an index of ODC activity.
# [3] = Acute toxicity test, single intravenous dosage (LD50), mouse; design: species or system mouse (Slc:ICR); conditions: in vivo
# Source text: (§2) Slc:SD rat and Slc:ICR mice (age in week of 6 to 8), each group has 5 male and 5 female, were applied to a toxicity test upon single dosage carried out by intravenous administration.
# [4] = Acute toxicity test, single intravenous dosage (LD50), rat; design: species or system rat (Slc:SD); conditions: in vivo
# Source text: as §2
# [5] = 2 μmol, Compound (II) p < 0.01 vs. TPA control
# [6] = 2 μmol, significant for Compound (II)
compound,measurement,setting,value
"C[C@@H]1C[C@H]2[C@@H]3CCC4=CC(=O)C=C[C@]4(C)[C@@]3(F)[C@@H](O)C[C@]2(C)[C@@]1(O)C(=O)CO [Dexamethasone, dexamethasone, reference compound]",inhibition for TPA-induced earlobe edema,"[1]; 250 nmol/ear, significant",about 60%
same,Right earlobe edema,"[1]; 250 nmol/earlobe, P < 0.05",34.7 ± 3.3 μm
same,inhibition against MPO activity,MPO (myeloperoxidase); 250 nmol/ear,about 13%
same,MPO Activity,MPO (myeloperoxidase); 250 nmol/earlobe,"5.52 ± 0.59 U/mg, protein"
"CCCCCCCCCCCCCCCCCCNC(=O)OCC(COC(=O)N(Cc1cccc[n+]1CC)C(C)=O)OC (centres unmarked) [CV-6209, 2-(2-acetyl-6-methoxy-3,9-dioxo-4,8-dioxa-2,10-diazaoctacosa-1-yl)-1-ethylpyridinium salt]",Epidermal ODC Activity,[2]; [5],0.374 ± 0.147 nmol CO2 /mg protein
same,inhibition of TPA-induced increase in epidermal ODC activity,[2]; [6],about 53%
"CCCCCCCCCCCCCCCCCCNC(=O)OC1CCN(C(=O)OC[C@H](COC(=O)N(Cc2cccc[n+]2CC)C(=O)c2ccccc2OC)OC)CC1 [Compound (II), 1-ethyl-2-[N-(2-methoxy)benzoyl-N-{(2R)-2-methoxy-3-(4-octadecylcarbamoyloxy)piperidinocarbonyloxypropoxy}carbonyl]aminomethyl pyridinium chloride]",LD50,[3]; female,50 mg/kg
same,LD50,[3]; male,46.8 mg/kg
same,Epidermal ODC Activity,"[2]; 0.5 μmol, P < 0.05 vs. TPA control",0.379 ± 0.130 nmol CO2 /mg protein
same,inhibition of TPA-induced increase in epidermal ODC activity,"[2]; 0.5 μmol, significant",about 52%
same,Epidermal ODC Activity,[2]; [5],0.136 ± 0.066 nmol CO2 /mg protein
same,inhibition of TPA-induced increase in epidermal ODC activity,[2]; [6],~83%
same,inhibition for TPA-induced earlobe edema,[1]; 4 nmol/ear,no inhibition
same,Right earlobe edema,[1]; 4 nmol/earlobe,105.9 ± 33.4 μm
same,inhibition for TPA-induced earlobe edema,[1]; 20 nmol/ear,no inhibition
same,Right earlobe edema,[1]; 20 nmol/earlobe,92.7 ± 19.8 μm
same,inhibition for TPA-induced earlobe edema,"[1]; 100 nmol/ear, significant",about 81%
same,Right earlobe edema,"[1]; 100 nmol/earlobe, P < 0.05",16.7 ± 3.0 μm
same,LD50,[4]; female,22.9 mg/kg
same,LD50,[4]; male,18.2 mg/kg
same,inhibition against MPO activity,MPO (myeloperoxidase); 4 nmol/ear,did not show inhibition
same,MPO Activity,MPO (myeloperoxidase); 4 nmol/earlobe,"7.63 ± 1.30 U/mg, protein"
same,inhibition against MPO activity,MPO (myeloperoxidase); 20 nmol/ear,did not show inhibition
same,MPO Activity,MPO (myeloperoxidase); 20 nmol/earlobe,"8.51 ± 1.21 U/mg, protein"
same,inhibition against MPO activity,MPO (myeloperoxidase); 100 nmol/ear,about 46%
same,MPO Activity,MPO (myeloperoxidase); 100 nmol/earlobe,"3.45 ± 1.06 U/mg, protein"
